Molecules are shown by their SMILES.

Sequence of Sodium-dependent dopamine transporter (Q01959 whole entry): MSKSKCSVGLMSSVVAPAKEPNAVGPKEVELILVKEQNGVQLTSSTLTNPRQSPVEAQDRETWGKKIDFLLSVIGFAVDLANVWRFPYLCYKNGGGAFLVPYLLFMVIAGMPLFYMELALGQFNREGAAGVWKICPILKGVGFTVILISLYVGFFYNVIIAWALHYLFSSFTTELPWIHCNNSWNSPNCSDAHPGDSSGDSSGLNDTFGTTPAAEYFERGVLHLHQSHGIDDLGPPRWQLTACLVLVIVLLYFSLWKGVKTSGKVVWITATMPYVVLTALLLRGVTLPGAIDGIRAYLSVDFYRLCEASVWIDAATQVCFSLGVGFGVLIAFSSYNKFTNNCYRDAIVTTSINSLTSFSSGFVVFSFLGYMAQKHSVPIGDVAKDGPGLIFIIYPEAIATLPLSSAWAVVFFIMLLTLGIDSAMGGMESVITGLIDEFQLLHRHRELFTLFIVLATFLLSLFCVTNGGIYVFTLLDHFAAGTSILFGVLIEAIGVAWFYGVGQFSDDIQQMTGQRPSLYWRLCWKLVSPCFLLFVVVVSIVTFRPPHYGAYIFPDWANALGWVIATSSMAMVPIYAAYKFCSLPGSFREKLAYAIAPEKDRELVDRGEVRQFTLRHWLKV

Target in the first data set: not listed separately
The data set can be described thus: DRUGMATRIX: Sigma2 radioligand binding (ligand: [3H] Ifenprodil). The class given is cell membranes, Rattus norvegicus, Wistar, Brain, Membrane. As to conditions: Not Active = under 50% inhibition at 10 µM; read-out: IC50.
Regarding `O=C(c1ccc(OCCN2CCCCC2)cc1)c1c(-c2ccc(O)cc2)sc2cc(O)ccc12` [RALOXIFENE], the IC50 is 385 nM.

Staying with this data set, now noted: Not Active = under 50% inhibition at 10 µM; read-out: Ki.
Take `O=C(c1ccc(OCCN2CCCCC2)cc1)c1c(-c2ccc(O)cc2)sc2cc(O)ccc12` [RALOXIFENE]: the Ki stood at 237 nM.

Another data set has as its target T1, 3-hydroxy-3-methylglutaryl-coenzyme A reductase (Homo sapiens, UniProt P04035).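 Further: enzyme inhibition assay of HMG-CoA reductase using radiolabeled [14C]HMG-CoA as substrate; in other assays of this panel Not Active means under 50% inhibition at 10 µM.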
T1 sequence (P04035 whole entry): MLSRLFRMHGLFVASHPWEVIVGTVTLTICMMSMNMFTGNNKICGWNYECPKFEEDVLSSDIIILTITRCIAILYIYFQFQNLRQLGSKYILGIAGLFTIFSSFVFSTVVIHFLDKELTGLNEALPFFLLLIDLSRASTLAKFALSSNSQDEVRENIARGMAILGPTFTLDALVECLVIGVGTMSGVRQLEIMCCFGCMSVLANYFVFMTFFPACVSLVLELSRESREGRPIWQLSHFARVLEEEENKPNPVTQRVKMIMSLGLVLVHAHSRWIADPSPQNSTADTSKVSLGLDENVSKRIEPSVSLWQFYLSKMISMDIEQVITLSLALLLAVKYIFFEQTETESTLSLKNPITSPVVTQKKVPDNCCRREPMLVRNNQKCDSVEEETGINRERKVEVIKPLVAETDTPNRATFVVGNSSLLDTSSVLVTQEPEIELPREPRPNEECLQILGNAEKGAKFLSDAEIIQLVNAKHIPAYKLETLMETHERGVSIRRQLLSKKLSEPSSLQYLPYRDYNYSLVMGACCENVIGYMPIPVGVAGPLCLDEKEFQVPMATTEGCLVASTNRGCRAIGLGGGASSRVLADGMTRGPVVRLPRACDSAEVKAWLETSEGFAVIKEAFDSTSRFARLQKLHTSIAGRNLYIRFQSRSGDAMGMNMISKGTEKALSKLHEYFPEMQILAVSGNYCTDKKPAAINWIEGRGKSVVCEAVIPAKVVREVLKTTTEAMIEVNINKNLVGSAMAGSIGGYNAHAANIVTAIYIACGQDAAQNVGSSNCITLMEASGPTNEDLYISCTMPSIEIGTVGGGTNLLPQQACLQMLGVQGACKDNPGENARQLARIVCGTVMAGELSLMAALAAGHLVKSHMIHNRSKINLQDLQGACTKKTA
Also on record: species or system Escherichia coli.
Conditions: not given
As for `Clc1ccc2c(c1)C(N1CCNCC1)=Nc1ccccc1O2` [AMOXAPINE], the IC50 result is “Not Active”.
Turning to `COc1cc2c(c(OC)c1OC)-c1ccc(OC)c(=O)cc1[C@@H](NC(C)=O)CC2` [COLCHICINE], the IC50 entry is reported as “Not Active”.
Same read-out and setting: to `CN1CCC(=C2c3ccccc3C=Cc3ccccc32)CC1` [CYPROHEPTADINE] belongs “Not Active”; to `CC/C(=C(/CC)c1ccc(O)cc1)c1ccc(O)cc1` [DIETHYLSTILBESTROL], “Not Active”; to `C=CCN1CC[C@]23c4c5ccc(O)c4O[C@H]2C(=O)CC[C@@]3(O)[C@H]1C5` [NALOXONE], “Not Active”.
Still for that read-out and setting: to `CC(C)NCC(O)COc1cccc2ccccc12` (stereo not drawn) [PROPRANOLOL] belongs “Not Active”.
Still for that read-out and setting: to `O=C(c1ccc(OCCN2CCCCC2)cc1)c1c(-c2ccc(O)cc2)sc2cc(O)ccc12` [RALOXIFENE] belongs “Not Active”.

Tested on in a further data set: not listed separately
The data set can be described thus: DRUGMATRIX: GABAA, Flunitrazepam, Central radioligand binding (ligand: [3H] Flunitrazepam). In kind it is cell membranes, Rattus norvegicus, Wistar, Brain, Membrane. The settings on record: Not Active = under 50% inhibition at 10 µM.
In the case of `O=C(c1ccc(OCCN2CCCCC2)cc1)c1c(-c2ccc(O)cc2)sc2cc(O)ccc12` [RALOXIFENE], the IC50 entry is reported as “Not Active” and the Ki result was “Not Active”.

A further data set concerns the target Sodium-dependent dopamine transporter (Homo sapiens, UniProt Q01959). The data set can be described thus: DRUGMATRIX: Dopamine Transporter radioligand binding (ligand: [125I] RTI-55). The class given is cell membranes, CHO-K1, Membrane. As to conditions: cho-k1; Not Active = under 50% inhibition at 10 µM.
Take `Clc1ccc2c(c1)C(N1CCNCC1)=Nc1ccccc1O2` [AMOXAPINE]: the IC50 result is reported as “Not Active”.
For `COc1cc2c(c(OC)c1OC)-c1ccc(OC)c(=O)cc1[C@@H](NC(C)=O)CC2` [COLCHICINE], the IC50 entry is given as “Not Active”.
`CN1CCC(=C2c3ccccc3C=Cc3ccccc32)CC1` [CYPROHEPTADINE]: the IC50 entry is reported as “Not Active”.
As to `C=CCN1CC[C@]23c4c5ccc(O)c4O[C@H]2C(=O)CC[C@@]3(O)[C@H]1C5` [NALOXONE], the IC50 entry is on record as “Not Active”.

Another data set has as its target T2, C-C chemokine receptor type 4 (Homo sapiens, UniProt P51679). Further: in other assays of this panel Not Active means under 50% inhibition at 10 µM.
T2 sequence (P51679 whole entry): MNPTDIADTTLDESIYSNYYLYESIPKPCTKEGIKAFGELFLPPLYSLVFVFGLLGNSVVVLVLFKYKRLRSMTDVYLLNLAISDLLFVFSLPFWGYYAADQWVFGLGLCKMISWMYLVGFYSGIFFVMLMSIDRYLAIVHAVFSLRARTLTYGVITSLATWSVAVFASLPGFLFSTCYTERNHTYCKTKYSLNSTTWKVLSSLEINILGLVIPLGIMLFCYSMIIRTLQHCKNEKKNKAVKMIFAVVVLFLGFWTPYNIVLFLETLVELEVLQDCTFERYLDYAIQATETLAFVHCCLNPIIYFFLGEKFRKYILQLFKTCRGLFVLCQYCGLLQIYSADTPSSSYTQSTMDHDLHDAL
In kind it is cell membranes, Membrane. As to conditions: chem-1.
Consider `Clc1ccc2c(c1)C(N1CCNCC1)=Nc1ccccc1O2` [AMOXAPINE], for which the IC50 result is “Not Active”.
The same measure, in the same setting: then `COc1cc2c(c(OC)c1OC)-c1ccc(OC)c(=O)cc1[C@@H](NC(C)=O)CC2` [COLCHICINE], with “Not Active”; and `CN1CCC(=C2c3ccccc3C=Cc3ccccc32)CC1` [CYPROHEPTADINE], with “Not Active”; and `CC/C(=C(/CC)c1ccc(O)cc1)c1ccc(O)cc1` [DIETHYLSTILBESTROL], with “Not Active”.
The same measure, in the same setting: then `C=CCN1CC[C@]23c4c5ccc(O)c4O[C@H]2C(=O)CC[C@@]3(O)[C@H]1C5` [NALOXONE], with “Not Active”; and `CC(C)NCC(O)COc1cccc2ccccc12` (stereo not drawn) [PROPRANOLOL], with “Not Active”; and `O=C(c1ccc(OCCN2CCCCC2)cc1)c1c(-c2ccc(O)cc2)sc2cc(O)ccc12` [RALOXIFENE], with “Not Active”.

The target of the next data set is Epidermal growth factor receptor (Homo sapiens, UniProt P00533). The data set can be described thus: DRUGMATRIX: Protein Tyrosine Kinase, EGF Receptor enzyme inhibition (substrate: Poly(Glu:Tyr)). In kind it is cell-based, Insect cells. As to conditions: insect cells; Not Active = under 50% inhibition at 10 µM.
Sequence of Epidermal growth factor receptor (P00533 whole entry): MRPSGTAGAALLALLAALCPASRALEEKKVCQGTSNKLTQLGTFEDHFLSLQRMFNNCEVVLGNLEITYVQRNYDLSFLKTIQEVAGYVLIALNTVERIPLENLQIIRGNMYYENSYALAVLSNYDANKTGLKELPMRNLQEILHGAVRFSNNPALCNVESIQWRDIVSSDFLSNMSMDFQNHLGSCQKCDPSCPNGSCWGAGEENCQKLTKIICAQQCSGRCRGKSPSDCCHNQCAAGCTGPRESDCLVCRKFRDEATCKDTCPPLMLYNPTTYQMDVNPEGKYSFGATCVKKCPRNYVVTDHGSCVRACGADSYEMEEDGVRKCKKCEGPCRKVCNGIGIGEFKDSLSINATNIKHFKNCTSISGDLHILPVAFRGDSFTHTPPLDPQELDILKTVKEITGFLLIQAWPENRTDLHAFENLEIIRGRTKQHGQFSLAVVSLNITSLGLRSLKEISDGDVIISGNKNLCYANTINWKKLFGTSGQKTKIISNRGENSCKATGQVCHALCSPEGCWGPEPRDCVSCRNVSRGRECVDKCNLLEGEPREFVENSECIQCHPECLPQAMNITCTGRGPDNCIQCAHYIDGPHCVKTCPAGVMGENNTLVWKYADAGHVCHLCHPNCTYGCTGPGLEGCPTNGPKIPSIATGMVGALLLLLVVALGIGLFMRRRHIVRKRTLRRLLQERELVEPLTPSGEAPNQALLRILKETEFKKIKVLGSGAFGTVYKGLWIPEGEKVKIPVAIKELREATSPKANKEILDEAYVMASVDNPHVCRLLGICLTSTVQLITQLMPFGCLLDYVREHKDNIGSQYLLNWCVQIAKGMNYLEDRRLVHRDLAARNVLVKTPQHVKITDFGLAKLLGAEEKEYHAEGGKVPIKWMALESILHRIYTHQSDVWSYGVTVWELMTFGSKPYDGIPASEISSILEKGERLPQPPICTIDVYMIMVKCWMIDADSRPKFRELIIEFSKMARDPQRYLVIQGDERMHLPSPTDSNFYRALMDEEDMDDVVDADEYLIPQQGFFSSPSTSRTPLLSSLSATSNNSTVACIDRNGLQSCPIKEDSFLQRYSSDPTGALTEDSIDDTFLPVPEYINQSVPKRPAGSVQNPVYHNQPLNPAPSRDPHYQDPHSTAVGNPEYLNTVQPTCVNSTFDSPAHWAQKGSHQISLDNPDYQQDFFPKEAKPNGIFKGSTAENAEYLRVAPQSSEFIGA
In the case of `Clc1ccc2c(c1)C(N1CCNCC1)=Nc1ccccc1O2` [AMOXAPINE], the IC50 result was “Not Active”.
Still for that read-out and setting: to `COc1cc2c(c(OC)c1OC)-c1ccc(OC)c(=O)cc1[C@@H](NC(C)=O)CC2` [COLCHICINE] belongs “Not Active”.
Still for that read-out and setting: to `CN1CCC(=C2c3ccccc3C=Cc3ccccc32)CC1` [CYPROHEPTADINE] belongs “Not Active”; to `CC/C(=C(/CC)c1ccc(O)cc1)c1ccc(O)cc1` [DIETHYLSTILBESTROL], “Not Active”; to `C=CCN1CC[C@]23c4c5ccc(O)c4O[C@H]2C(=O)CC[C@@]3(O)[C@H]1C5` [NALOXONE], “Not Active”.
Turning to `CC(C)NCC(O)COc1cccc2ccccc12` (stereo not drawn) [PROPRANOLOL], the IC50 entry was “Not Active”.
With `O=C(c1ccc(OCCN2CCCCC2)cc1)c1c(-c2ccc(O)cc2)sc2cc(O)ccc12` [RALOXIFENE], the IC50 entry was “Not Active”.

In another data set the target is Melanocortin receptor 4 (Homo sapiens, UniProt P32245). The class given is cell membranes, Membrane. The settings on record: hek293. Further: in other assays of this panel Not Active means under 50% inhibition at 10 µM.
Sequence of Melanocortin receptor 4 (P32245 whole entry): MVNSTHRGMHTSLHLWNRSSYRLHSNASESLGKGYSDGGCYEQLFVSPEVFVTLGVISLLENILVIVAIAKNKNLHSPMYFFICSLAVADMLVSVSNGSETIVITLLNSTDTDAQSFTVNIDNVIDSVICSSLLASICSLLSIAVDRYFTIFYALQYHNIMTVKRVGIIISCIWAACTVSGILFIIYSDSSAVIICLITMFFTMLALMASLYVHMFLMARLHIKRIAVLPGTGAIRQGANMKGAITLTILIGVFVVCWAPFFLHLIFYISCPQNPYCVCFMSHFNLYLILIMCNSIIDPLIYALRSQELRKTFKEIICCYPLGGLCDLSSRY
Regarding `Clc1ccc2c(c1)C(N1CCNCC1)=Nc1ccccc1O2` [AMOXAPINE], the half-inhibitory concentration (IC50) result is “Not Active”.
Still for that read-out and setting: then `COc1cc2c(c(OC)c1OC)-c1ccc(OC)c(=O)cc1[C@@H](NC(C)=O)CC2` [COLCHICINE], with “Not Active”.
Still for that read-out and setting: then `CN1CCC(=C2c3ccccc3C=Cc3ccccc32)CC1` [CYPROHEPTADINE], with “Not Active”; and `CC/C(=C(/CC)c1ccc(O)cc1)c1ccc(O)cc1` [DIETHYLSTILBESTROL], with “Not Active”; and `C=CCN1CC[C@]23c4c5ccc(O)c4O[C@H]2C(=O)CC[C@@]3(O)[C@H]1C5` [NALOXONE], with “Not Active”.
Same read-out and setting: to `CC(C)NCC(O)COc1cccc2ccccc12` (stereo not drawn) [PROPRANOLOL] belongs “Not Active”; to `O=C(c1ccc(OCCN2CCCCC2)cc1)c1c(-c2ccc(O)cc2)sc2cc(O)ccc12` [RALOXIFENE], “Not Active”.

In another data set the target is T3, Endothelin-1 receptor (Homo sapiens, UniProt P25101). Further: in other assays of this panel Not Active means under 50% inhibition at 10 µM.
T3 sequence (P25101 whole entry): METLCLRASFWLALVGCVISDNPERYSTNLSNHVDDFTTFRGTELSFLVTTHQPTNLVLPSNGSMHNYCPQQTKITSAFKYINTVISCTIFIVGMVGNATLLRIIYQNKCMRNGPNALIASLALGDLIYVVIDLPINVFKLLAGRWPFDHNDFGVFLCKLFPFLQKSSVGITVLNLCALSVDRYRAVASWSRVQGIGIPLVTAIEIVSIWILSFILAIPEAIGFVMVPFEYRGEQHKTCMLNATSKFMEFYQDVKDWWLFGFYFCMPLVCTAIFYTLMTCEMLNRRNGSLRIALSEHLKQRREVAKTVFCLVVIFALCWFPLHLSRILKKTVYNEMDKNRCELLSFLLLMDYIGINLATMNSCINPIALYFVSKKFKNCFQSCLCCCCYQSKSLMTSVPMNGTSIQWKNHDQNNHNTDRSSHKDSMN
In kind it is cell membranes, Membrane. As to conditions: cho-k1.
Regarding `Clc1ccc2c(c1)C(N1CCNCC1)=Nc1ccccc1O2` [AMOXAPINE], the IC50 result is “Not Active”.
Same read-out and setting: then `COc1cc2c(c(OC)c1OC)-c1ccc(OC)c(=O)cc1[C@@H](NC(C)=O)CC2` [COLCHICINE], with “Not Active”; and `CN1CCC(=C2c3ccccc3C=Cc3ccccc32)CC1` [CYPROHEPTADINE], with “Not Active”; and `CC/C(=C(/CC)c1ccc(O)cc1)c1ccc(O)cc1` [DIETHYLSTILBESTROL], with “Not Active”.
The same measure, in the same setting: then `C=CCN1CC[C@]23c4c5ccc(O)c4O[C@H]2C(=O)CC[C@@]3(O)[C@H]1C5` [NALOXONE], with “Not Active”; and `CC(C)NCC(O)COc1cccc2ccccc12` (stereo not drawn) [PROPRANOLOL], with “Not Active”.
The same measure, in the same setting: to `O=C(c1ccc(OCCN2CCCCC2)cc1)c1c(-c2ccc(O)cc2)sc2cc(O)ccc12` [RALOXIFENE] belongs “Not Active”.

The target in a further data set is Cytochrome P450 2D6 (Homo sapiens, UniProt P10635). The settings on record: bti-tn-5b1-4. Further: in other assays of this panel Not Active means under 50% inhibition at 10 µM.
Sequence of Cytochrome P450 2D6 (P10635 whole entry): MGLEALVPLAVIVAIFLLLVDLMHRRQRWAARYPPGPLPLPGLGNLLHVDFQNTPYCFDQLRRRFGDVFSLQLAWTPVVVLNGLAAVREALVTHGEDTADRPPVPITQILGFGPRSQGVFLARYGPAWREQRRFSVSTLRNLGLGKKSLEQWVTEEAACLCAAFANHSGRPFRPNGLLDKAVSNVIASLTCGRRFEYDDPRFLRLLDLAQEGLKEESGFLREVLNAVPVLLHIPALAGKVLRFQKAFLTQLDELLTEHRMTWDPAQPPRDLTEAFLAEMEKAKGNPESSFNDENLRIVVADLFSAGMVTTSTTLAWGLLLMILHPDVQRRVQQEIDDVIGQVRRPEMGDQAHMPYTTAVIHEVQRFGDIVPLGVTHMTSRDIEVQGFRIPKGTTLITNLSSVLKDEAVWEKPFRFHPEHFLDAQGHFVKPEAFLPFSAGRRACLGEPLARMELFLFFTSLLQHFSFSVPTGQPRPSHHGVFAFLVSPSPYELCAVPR
Take `COc1cc2c(c(OC)c1OC)-c1ccc(OC)c(=O)cc1[C@@H](NC(C)=O)CC2` [COLCHICINE]: the IC50 result is “Not Active” and the Ki result is listed as “Not Active”.
Turning to `CN1CCC(=C2c3ccccc3C=Cc3ccccc32)CC1` [CYPROHEPTADINE], the IC50 entry was “Not Active” and the Ki entry is “Not Active”.
For the molecule `CC/C(=C(/CC)c1ccc(O)cc1)c1ccc(O)cc1` [DIETHYLSTILBESTROL], the IC50 entry is given as “Not Active” and the Ki result is recorded as “Not Active”.
As for `O=C(c1ccc(OCCN2CCCCC2)cc1)c1c(-c2ccc(O)cc2)sc2cc(O)ccc12` [RALOXIFENE], the IC50 entry is reported as “Not Active” and the Ki result is recorded as “Not Active”.

A further data set concerns the target Protein phosphatase 3 catalytic subunit alpha (Homo sapiens, UniProt Q08209). Also on record: species or system Escherichia coli.
Conditions: not given
Turning to `Clc1ccc2c(c1)C(N1CCNCC1)=Nc1ccccc1O2` [AMOXAPINE], the IC50 entry is “Not Active”.
`COc1cc2c(c(OC)c1OC)-c1ccc(OC)c(=O)cc1[C@@H](NC(C)=O)CC2` [COLCHICINE]: the IC50 entry is on record as “Not Active”.
The same measure, in the same setting: then `CN1CCC(=C2c3ccccc3C=Cc3ccccc32)CC1` [CYPROHEPTADINE], with “Not Active”; and `CC/C(=C(/CC)c1ccc(O)cc1)c1ccc(O)cc1` [DIETHYLSTILBESTROL], with “Not Active”.
In the case of `C=CCN1CC[C@]23c4c5ccc(O)c4O[C@H]2C(=O)CC[C@@]3(O)[C@H]1C5` [NALOXONE], the IC50 result was “Not Active”.
Still for that read-out and setting: then `CC(C)NCC(O)COc1cccc2ccccc12` (stereo not drawn) [PROPRANOLOL], with “Not Active”; and `O=C(c1ccc(OCCN2CCCCC2)cc1)c1c(-c2ccc(O)cc2)sc2cc(O)ccc12` [RALOXIFENE], with “Not Active”.

In general, IC50 refers to the concentration at which inhibition is half-maximal. The Ki is the dissociation constant of the complex between target and ligand, obtained from inhibition or displacement.

The record behind these values is ChEMBL document CHEMBL1909046, “DrugMatrix in vitro pharmacology data”.
